Test results published in ChEMBL document CHEMBL3091391, “An assay for human telomeric G-quadruplex DNA binding drugs” (Bioorg Med Chem Lett, 2013).
Calls of active or inactive are those of the source. No cut-off for these calls is given here.

How the values were obtained:
[1] = organism: Homo sapiens; assay: Binding affinity to human d[AGGG(TTAGGG)3] telomeric G-quadruplex DNA by fluorescence-based assay
[2] = organism: Homo sapiens; assay: Binding affinity to human telomeric G-quadruplex DNA
[3] = organism: Homo sapiens; assay: Selectivity ratio of binding affinity for human d[AGGG(TTAGGG)3] telomeric G-quadruplex DNA in presence of sodium ions to binding affinity for human d[AGGG(TTAGGG)3] telomeric G-quadruplex DNA in presence of potassium ions
[4] = organism: Homo sapiens; assay: Binding affinity to human d[AGGG(TTAGGG)3] telomeric G-quadruplex DNA after 1 to 12 hrs by titrimetric analysis in presence of potassium ions
[5] = organism: Homo sapiens; assay: Binding affinity to human d[AGGG(TTAGGG)3] telomeric G-quadruplex DNA after 1 to 12 hrs by titrimetric analysis in presence of sodium ions
[6] = Binding affinity to d(G4C4)2 duplex DNA (unknown origin) by fluorescence-based assay

## NC[C@@H]1O[C@H](O[C@H]2[C@@H](O)[C@H](O[C@@H]3[C@@H](O)[C@H](N)C[C@H](N)[C@H]3O[C@H]3O[C@H](CN)[C@@H](O)[C@H](O)[C@H]3N)O[C@@H]2CSCCNC(=S)NCCCOCCCCOCCCNC(=S)NCc2ccc3c(c2)C(=O)c2ccccc2C3=O)[C@H](N)[C@@H](O)[C@@H]1O
[1]
  Activity: inactive

## NC[C@@H]1O[C@H](O[C@H]2[C@@H](O)[C@H](O[C@@H]3[C@@H](O)[C@H](N)C[C@H](N)[C@H]3O[C@H]3O[C@H](CN)[C@@H](O)[C@H](O)[C@H]3N)O[C@@H]2CNC(=S)NCCCCCCCCCCNC(=S)NCc2ccc3c(c2)C(=O)c2ccccc2C3=O)[C@H](N)[C@@H](O)[C@@H]1O
[1]
  Activity: inactive

## NC[C@@H]1O[C@H](O[C@H]2[C@@H](O)[C@H](O[C@@H]3[C@@H](O)[C@H](N)C[C@H](N)[C@H]3O[C@H]3O[C@H](CN)[C@@H](O)[C@H](O)[C@H]3N)O[C@@H]2CNC(=S)NCCCOCCCCOCCCNC(=S)NCc2ccc3c(c2)C(=O)c2ccccc2C3=O)[C@H](N)[C@@H](O)[C@@H]1O
[1]
  Activity: inactive

## NC[C@@H]1O[C@H](O[C@H]2[C@@H](O)[C@H](O[C@@H]3[C@@H](O)[C@H](N)C[C@H](N)[C@H]3O[C@H]3O[C@H](CN)[C@@H](O)[C@H](O)[C@H]3N)O[C@@H]2CSCCNC(=S)NCCCCCCCCCCNC(=S)NCc2ccc3c(c2)C(=O)c2ccccc2C3=O)[C@H](N)[C@@H](O)[C@@H]1O
[1]
  Activity: inactive

## NCC1O[C@H](O[C@H]2[C@@H](O)[C@H](O[C@@H]3[C@@H](O)[C@H](N)C[C@H](N)[C@H]3O[C@H]3O[C@H](CN)[C@@H](O)[C@H](O)[C@H]3N)O[C@@H]2CNC(=S)NCc2ccc3c(c2)C(=O)c2ccccc2C3=O)[C@H](N)[C@@H](O)[C@@H]1O (single isomer, unassigned)
[1]
  Activity: inactive

## NC[C@@H]1O[C@H](O[C@H]2[C@@H](O)[C@H](O[C@@H]3[C@@H](O)[C@H](N)C[C@H](N)[C@H]3O[C@H]3O[C@H](CN)[C@@H](O)[C@H](O)[C@H]3N)O[C@@H]2CNC(=S)Nc2ccc3c(c2)C(=O)c2ccccc2C3=O)[C@H](N)[C@@H](O)[C@@H]1O
[1]
  Activity: inactive

## NC[C@@H]1O[C@H](O[C@H]2[C@@H](O)[C@H](O[C@@H]3[C@@H](O)[C@H](N)C[C@H](N)[C@H]3O[C@H]3O[C@H](CN)[C@@H](O)[C@H](O)[C@H]3N)O[C@@H]2CSCCNC(=S)NCCNC(=S)NCc2ccc3c(c2)C(=O)c2ccccc2C3=O)[C@H](N)[C@@H](O)[C@@H]1O
[1]
  Activity: inactive

## NC[C@@H]1O[C@H](O[C@H]2[C@@H](O)[C@H](O[C@@H]3[C@@H](O)[C@H](N)C[C@H](N)[C@H]3O[C@H]3O[C@H](CN)[C@@H](O)[C@H](O)[C@H]3N)O[C@@H]2CSCCNC(=S)Nc2ccc3c(c2)C(=O)c2ccccc2C3=O)[C@H](N)[C@@H](O)[C@@H]1O
[1]
  Activity: inactive

## NC[C@@H]1O[C@H](O[C@H]2[C@@H](O)[C@H](O[C@@H]3[C@@H](O)[C@H](N)C[C@H](N)[C@H]3O[C@H]3O[C@H](CN)[C@@H](O)[C@H](O)[C@H]3N)O[C@@H]2CNC(=S)NCCCNC(=S)NCc2ccc3c(c2)C(=O)c2ccccc2C3=O)[C@H](N)[C@@H](O)[C@@H]1O
[1]
  Activity: inactive

## NC[C@@H]1O[C@H](O[C@H]2[C@@H](O)[C@H](O[C@@H]3[C@@H](O)[C@H](N)C[C@H](N)[C@H]3O[C@H]3O[C@H](CN)[C@@H](O)[C@H](O)[C@H]3N)O[C@@H]2CSCCNC(=S)NCCCNC(=S)NCc2ccc3c(c2)C(=O)c2ccccc2C3=O)[C@H](N)[C@@H](O)[C@@H]1O
[1]
  Activity: inactive

## NC[C@@H]1O[C@H](O[C@H]2[C@@H](O)[C@H](O[C@@H]3[C@@H](O)[C@H](N)C[C@H](N)[C@H]3O[C@H]3O[C@H](CN)[C@@H](O)[C@H](O)[C@H]3N)O[C@@H]2CNC(=S)NCCNC(=S)NCc2ccc3c(c2)C(=O)c2ccccc2C3=O)[C@H](N)[C@@H](O)[C@@H]1O
[1]
  Activity: inactive

## NC[C@@H]1O[C@H](O[C@H]2[C@@H](O)[C@H](O[C@@H]3[C@@H](O)[C@H](N)C[C@H](N)[C@H]3O[C@H]3O[C@H](CN)[C@@H](O)[C@H](O)[C@H]3N)O[C@@H]2CSCCNC(=S)NCc2ccc3c(c2)C(=O)c2ccccc2C3=O)[C@H](N)[C@@H](O)[C@@H]1O
[1]
  Activity: inactive

## NC[C@@H]1O[C@H](O[C@H]2[C@@H](O)[C@H](O[C@@H]3[C@@H](O)[C@H](N)C[C@H](N)[C@H]3O[C@H]3O[C@H](CN)[C@@H](O)[C@H](O)[C@H]3N)O[C@@H]2CSCCNC(=S)NCCCNC(=O)c2ccc3c(c2)C(=O)c2ccccc2C3=O)[C@H](N)[C@@H](O)[C@@H]1O
[2]
  Ka: 1.25 ×10⁷ /M

## CN1/C(=C/c2cc[n+](CCCCC(=O)NCCSC[C@H]3O[C@@H](O[C@@H]4[C@@H](O)[C@H](N)C[C@H](N)[C@H]4O[C@H]4O[C@H](CN)[C@@H](O)[C@H](O)[C@H]4N)[C@H](O)[C@@H]3O[C@H]3O[C@@H](CN)[C@@H](O)[C@H](O)[C@H]3N)c3ccccc23)Sc2ccccc21
[3]
  Selectivity ratio: 10
[4]
  K: 9.3 ×10⁶ /M
[5]
  K: 9.6 ×10⁷ /M
[6]
  Activity: Active
